Source: patent US7763615B2, “Ecteinascidin analogs for use as antitumour agents” (priority 2001, dated 2010)
Values after ≈ are worked out from the molar mass of the structure shown.

Key:
A549 = assay: cells; type: cell-based; details: for TGI: A549; for GI50 / CC50: Homo sapiens; for GI50: A549, A549, read-out: GI50; for CC50: A549, read-out: LC50, A549
Method in brief: (§1)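 Human tumour cells seeded at 5×10^3 per well in RPMI 1640 10% FBS, attached 18 h, then exposed 48 h to samples from 10 to 10^−8 μg/ml in DMSO/EtOH/PBS. Growth measured by SRB staining after TCA fixation, OD 490 nm, triplicate wells; GI, TGI and LC derived.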

DU145 = assay: cells; type: cell-based; details: for TGI: DU145; for GI50 / CC50: Homo sapiens; for GI50: DU-145, DU145; for CC50: DU-145, read-out: LC50, DU145
Method in brief: as §1

HT29 = assay: cells; type: cell-based; details: for TGI: HT29; for GI50 / CC50: Homo sapiens; for GI50: HT-29, HT29; for CC50: HT-29, read-out: LC50, HT29
Method in brief: as §1

IGROV-ET = assay: cells; type: cell-based; details: for GI50 / CC50: Homo sapiens; for GI50 / TGI: IGROV-ET; for CC50: read-out: LC50, IGROV-ET
Method in brief: as §1

IGROV = assay: cells; type: cell-based; details: for GI50 / CC50: Homo sapiens; for CC50: read-out: LC50, IGROV
Method in brief: as §1

K562 = assay: cells; type: cell-based; details: for GI50 / CC50: Homo sapiens; for GI50: K562, K562; for CC50: K562, read-out: LC50, K562; for TGI: K562
Method in brief: as §1

LNCAP = assay: cells; type: cell-based; details: for GI50 / CC50: Homo sapiens, LNCaP; for CC50: read-out: LC50, LNCAP; for TGI: LNCAP
Method in brief: as §1

LOVO-DOX = assay: cells; type: cell-based; details: for GI50 / CC50: Homo sapiens; for GI50 / TGI: LOVO-DOX; for CC50: read-out: LC50, LOVO-DOX
Method in brief: as §1

LOVO = assay: cells; type: cell-based; details: for GI50 / CC50: Homo sapiens, LoVo; for CC50: read-out: LC50, LOVO; for TGI: LOVO
Method in brief: as §1

MEL-28 = assay: cells; type: cell-based; details: for GI50 / CC50: Homo sapiens; for GI50: SK-MEL-28, MEL-28; for CC50: SK-MEL-28, read-out: LC50, MEL-28; for TGI: MEL-28
Method in brief: as §1

PANC-1 = assay: cells; type: cell-based; details: for GI50 / CC50: Homo sapiens; for GI50: PANC-1, PANC-1; for CC50: PANC-1, read-out: LC50, PANC-1; for TGI: PANC-1
Method in brief: as §1

SK-BR3 = assay: cells; type: cell-based; details: for GI50 / CC50: Homo sapiens; for GI50: SK-BR-3, SK-BR3; for CC50: SK-BR-3, read-out: LC50, SK-BR3; for TGI: SK-BR3
Method in brief: as §1

H-MEC-1 = assay: Inhibition of cells growth by colorimetric assay (SRB), H-MEC-1; type: cell-based; details: for TGI: H-MEC-1; for GI50 / CC50: Homo sapiens; for GI50: HMEC-1, H-MEC-1; for CC50: HMEC-1, read-out: LC50, H-MEC-1
Method in brief: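 SRB colorimetric growth assay: 5×10^3 cells/well, 18 h attachment, 48 h continuous compound exposure at 10–10^−8 μg/ml in DMSO/EtOH/PBS. TCA fixation, SRB stain, OD 490 nm; triplicate wells, GI, TGI and LC derived.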

SK-OV3 = assay: Inhibition of cells growth by colorimetric assay (SRB), SK-OV3; type: cell-based; details: for GI50 / CC50: Homo sapiens; for GI50: SK-OV-3, SK-OV3; for CC50: SK-OV-3, read-out: LC50, SK-OV3; for TGI: SK-OV3
Method in brief: as §1

[1] = system: AML-12, normal mouse liver cells; details: 24 h
[2] = system: NRK-52E, normal rat kidney cells; details: 24 h
[3] = system: L8, normal rat skeletal muscle cells; details: 24 h
[4] = system: FDC-P1, normal mouse myelogeous stem cells; details: 24 h
[5] = system: H9c2 (2-1), normal rat cardiac muscle cells; details: 24 h
[6] = s9, 60 min, 1 μM
(HEPG2) = details: human, 24 h, 30 μM
Protocol: The toxic potential of compounds was investigated in vitro using primary human hepatocytes (HEPG2). The compounds were tested at 30 μM in duplicate with a final DMSO concentration of 1%. After incubation during 24 h at 37° C. the cell viability was determined by the conversion of oxided alarmarBlue (resazurin) to reduced alarmarBlue (resorufin). Chlorpromazine was used as reference compound. Results are expressed as a percent of inhibition of control values.

physchem [7] = details: pH 7.4, log D n-Octanol-Dulbecco's PBS pH 7.4
Protocol: The measurement of partition coefficient was evaluated based on a miniaturized shake-flask procedure. Buffer (Dulbecco's PBS, pH 7.40) was used as the aqueous phase. The tested compound was dissolved in DMSO, at the concentration of 100 μM. The final DMSO concentration (1%.) during the octanol-buffer partitioning are very low to avoid bias on the partitioning. The amount of compound in the buffer phase was determined by HPLC with photodiode array detection after an equilibration phase of 60 min. The amount of compound in the octanol phase is calculated by subtraction of the amount of compound in buffer from the total amount of compound, which is determined from a calibration sample.
Log D is calculated as the Log10 of the amount of compound in the octanol phase divided by the amount of compound in the buffer phase. The effective range of the log D microassay is approximately −0.5 to +4.5.

CYP2D6 = CYP2D6 (Homo sapiens, UniProt P10635); assay: in vitro; details: CYP2D6 (% inhibition)
Chain of CYP2D6 (P10635 whole entry): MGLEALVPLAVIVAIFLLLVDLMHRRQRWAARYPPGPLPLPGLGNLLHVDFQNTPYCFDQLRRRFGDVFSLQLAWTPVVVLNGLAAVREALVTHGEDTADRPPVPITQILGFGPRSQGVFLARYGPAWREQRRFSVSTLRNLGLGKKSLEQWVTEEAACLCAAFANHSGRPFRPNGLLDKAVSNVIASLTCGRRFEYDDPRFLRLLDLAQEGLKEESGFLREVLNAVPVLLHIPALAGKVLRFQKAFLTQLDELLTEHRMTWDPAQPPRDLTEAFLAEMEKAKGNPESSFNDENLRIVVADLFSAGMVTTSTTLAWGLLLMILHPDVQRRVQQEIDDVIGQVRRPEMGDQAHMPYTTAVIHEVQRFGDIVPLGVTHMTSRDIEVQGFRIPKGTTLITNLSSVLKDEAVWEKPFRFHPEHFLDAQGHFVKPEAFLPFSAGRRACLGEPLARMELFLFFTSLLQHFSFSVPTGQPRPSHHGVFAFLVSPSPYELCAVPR
Protocol: For CYP2D6 inhibition assay, the compound are tested at 10 μM in duplicate with a 0.25% final concentration of both methanol and acetonitrile in presence of the fluorescent substrate AMMC (3-[2-N,N-diethyl-N-methylammonium)ethyl]-7-methoxy-4-methylcoumarin) at the concentration of 1.5 μM). The conversion of the AMMC in AHMC (3-[2-N,N-diethyl-N-methylammonium)ethyl]-7-hydroxy-4-methylcoumarin) is determined spectrofluorimetry after incubation with the enzyme during 450 min at 37° C.
For both assays, the fluorescent intensity measured at t=0 is subtracted from that measured after the appropriate incubation time. The ratio of signal-to-noise is calculated by comparing the fluorescence in incubations containing the test compound to the control samples containing the same solvent vehicle. The percent of control activity is calculated and reported as percent inhibition.

CYP3A4 = CYP3A4 (Homo sapiens, UniProt P08684); assay: in vitro; details: CYP3A4 (% inhibition)
Chain of CYP3A4 (P08684 whole entry): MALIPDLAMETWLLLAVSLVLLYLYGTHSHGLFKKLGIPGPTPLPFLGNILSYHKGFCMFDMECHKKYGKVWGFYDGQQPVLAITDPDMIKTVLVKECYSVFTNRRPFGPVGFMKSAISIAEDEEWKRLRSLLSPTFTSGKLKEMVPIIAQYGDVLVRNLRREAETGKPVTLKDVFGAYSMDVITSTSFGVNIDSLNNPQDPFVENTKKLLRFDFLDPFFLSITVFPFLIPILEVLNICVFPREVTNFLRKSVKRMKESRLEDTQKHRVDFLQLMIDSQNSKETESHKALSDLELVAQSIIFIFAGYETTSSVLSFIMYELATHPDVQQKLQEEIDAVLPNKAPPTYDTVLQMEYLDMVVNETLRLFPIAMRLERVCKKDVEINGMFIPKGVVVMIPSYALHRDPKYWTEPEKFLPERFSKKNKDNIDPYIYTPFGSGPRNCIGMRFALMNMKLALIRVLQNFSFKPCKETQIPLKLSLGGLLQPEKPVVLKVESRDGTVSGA

physchem [8] = details: pH 7.4, aqueous buffer, Solubility Dulbecco's PBS pH 7.4

**Q.** What does the source list for COc1c(C)cc2c(c1OC(=O)OC(C)(C)C)[C@@H]1C3[C@@H]4SC[C@]5(NCCc6c5[nH]c5ccccc65)C(=O)COC[C@@H](c5c6c(c(C)c(OC(C)=O)c54)OCO6)N3[C@@H](O)[C@H](C2)N1C (stereo partly shown) [Compound 46]?
**A.** TGI (A549): 6.78E−08; GI50 (A549): 33.3 nM; CC50 (A549): 335 nM; TGI (DU145): 4.61E−08; GI50 (DU145): 6.48 nM; CC50 (DU145): ≥ 11.7 µM; TGI (HT29): 1.22E−06; GI50 (HT29): 44.4 nM; CC50 (HT29): ≥ 11.7 µM; GI50 (IGROV-ET): 49.5 nM; CC50 (IGROV-ET): 7.35 µM; TGI (IGROV-ET): 1.29E−07; TGI (IGROV): 5.40E−08; GI50 (IGROV): 23.2 nM; CC50 (IGROV): 192 nM; GI50 (K562): 1220 nM; CC50 (K562): 3.38 µM; TGI (K562): 2.02E−06; GI50 (LNCAP): 0.117 nM; CC50 (LNCAP): 17.5 nM; TGI (LNCAP): 3.25E−09; GI50 (LOVO-DOX): 38.2 nM; CC50 (LOVO-DOX): ≥ 11.7 µM; TGI (LOVO-DOX): 2.41E−07; GI50 (LOVO): 15.6 nM; CC50 (LOVO): ≥ 11.7 µM; TGI (LOVO): 5.70E−08; GI50 (MEL-28): 12.4 nM; CC50 (MEL-28): 153 nM; TGI (MEL-28): 4.07E−08; GI50 (PANC-1): 41.1 nM; CC50 (PANC-1): ≥ 11.7 µM; TGI (PANC-1): 2.58E−07; GI50 (SK-BR3): 16.3 nM; CC50 (SK-BR3): 412 nM; TGI (SK-BR3): 5.84E−08; TGI (H-MEC-1): 1.17E−06; GI50 (H-MEC-1): 26 nM; CC50 (H-MEC-1): ≥ 11.7 µM; GI50 (SK-OV3): 30.6 nM; CC50 (SK-OV3): ≥ 11.7 µM; TGI (SK-OV3): 2.00E−06; Liver [1]: 5.01E−08; Kidney [2]: 4.01E−08; Skeletal [3]: 2.16E−07; Myelo [4]: 1.17E−07; Heart [5]: 3.51E−08; Human Liver S9 Metabolic Stability (% remaining) [6]: 7 % remaining; Cell Viability (% inhibition) ((HEPG2)): 33 % inhibition; logD at 60 min (physchem [7]): > 5; inhibition at 450 min, 10 µM (CYP2D6): 16%; inhibition at 30 min, 10 µM (CYP3A4): 60%; solubility (physchem [8]): 1.37 µM (≈ 1.19 µg/mL)

**Q.** What does the source list for C=COC(=O)Oc1c(OC)c(C)cc2c1[C@@H]1C3[C@@H]4SC[C@]5(NCCc6c5[nH]c5ccccc65)C(=O)COC[C@@H](c5c6c(c(C)c(OC(C)=O)c54)OCO6)N3[C@@H](O)[C@H](C2)N1C (stereo partly shown) [Compound 47]?
**A.** TGI (A549): 7.50E−08; GI50 (A549): 33.3 nM; CC50 (A549): 1330 nM; TGI (DU145): 2.06E−08; GI50 (DU145): 5.46 nM; CC50 (DU145): ≥ 12.1 µM; TGI (HT29): 1.21E−05; GI50 (HT29): 38.8 nM; CC50 (HT29): ≥ 12.1 µM; GI50 (IGROV-ET): 69.7 nM; CC50 (IGROV-ET): ≥ 12.1 µM; TGI (IGROV-ET): 3.61E−06; TGI (IGROV): 4.07E−08; GI50 (IGROV): 10.6 nM; CC50 (IGROV): 909 nM; GI50 (K562): 13.1 nM; CC50 (K562): 6.32 µM; TGI (K562): 2.11E−06; GI50 (LNCAP): 2.65 nM; CC50 (LNCAP): 9.76 nM; TGI (LNCAP): 5.08E−09; GI50 (LOVO-DOX): 40.7 nM; CC50 (LOVO-DOX): ≥ 12.1 µM; TGI (LOVO-DOX): 1.17E−07; GI50 (LOVO): 6.26 nM; CC50 (LOVO): ≥ 12.1 µM; TGI (LOVO): 4.64E−08; GI50 (MEL-28): 4.26 nM; CC50 (MEL-28): 207 nM; TGI (MEL-28): 1.00E−08; GI50 (PANC-1): 42.4 nM; CC50 (PANC-1): ≥ 12.1 µM; TGI (PANC-1): 1.70E−06; GI50 (SK-BR3): 7.56 nM; CC50 (SK-BR3): 693 nM; TGI (SK-BR3): 3.47E−08; TGI (H-MEC-1): 1.50E−07; GI50 (H-MEC-1): 6.78 nM; CC50 (H-MEC-1): ≥ 12.1 µM; GI50 (SK-OV3): 8.98 nM; CC50 (SK-OV3): ≥ 12.1 µM; TGI (SK-OV3): 2.88E−07; Liver [1]: 3.04E−08; Kidney [2]: 3.15E−08; Skeletal [3]: 2.57E−08; Myelo [4]: 6.76E−08; Heart [5]: 7.36E−08; Human Liver S9 Metabolic Stability (% remaining) [6]: 5 % remaining; Cell Viability (% inhibition) ((HEPG2)): 18 % inhibition; logD at 60 min (physchem [7]): > 5; inhibition at 450 min, 10 µM (CYP2D6): 10%; inhibition at 30 min, 10 µM (CYP3A4): 38%; solubility (physchem [8]): < 1 µM
